Data from ChEMBL document CHEMBL1201862, “PubChem BioAssay data set” (2004).
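Cultured in 96-well plates, cells were exposed to test compound for 48 hours across five concentrations. GI50 is the concentration that inhibits growth by half.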 Active and inactive are the calls of the source. Rule as the data show it: active = GI50 up to about 1.1 µM and inactive = higher.

What was measured:
Experiment in all cases: NCI anticancer screen, dose series, 48 h
786-0 = tested on: 786-0
A549 = tested on: A549
ACHN = tested on: ACHN
CAKI-1 = tested on: CAKI-1
CCRF-CEM = tested on: CCRF-CEM
COLO 205 = tested on: COLO 205
DLD-1 = tested on: DLD-1
DMS-114 = tested on: DMS-114
DMS-273 = tested on: DMS-273
EKVX = tested on: EKVX
HCC 2998 = tested on: HCC 2998
HCT-116 = tested on: HCT-116
HCT-15 = tested on: HCT-15
HOP-62 = tested on: HOP-62
HOP-92 = tested on: HOP-92
HT-29 = tested on: HT-29
IGROV-1 = tested on: IGROV-1
K562 = tested on: K562
KM-20L2 = tested on: KM-20L2
KM12 = tested on: KM12
LOX IMVI = tested on: LOX IMVI
LXFL 529 = tested on: LXFL 529
M14 = tested on: M14
M19-MEL = tested on: M19-MEL
MOLT-4 = tested on: MOLT-4
Malme-3M = tested on: Malme-3M
NCI-H226 = tested on: NCI-H226
NCI-H23 = tested on: NCI-H23
NCI-H460 = tested on: NCI-H460
NCI-H522 = tested on: NCI-H522
OVCAR-3 = tested on: OVCAR-3
OVCAR-4 = tested on: OVCAR-4
OVCAR-5 = tested on: OVCAR-5
OVCAR-8 = tested on: OVCAR-8
RPMI-8226 = tested on: RPMI-8226
RXF 631 = tested on: RXF 631
SF-268 = tested on: SF-268
SF-295 = tested on: SF-295
SF-539 = tested on: SF-539
SK-MEL-28 = tested on: SK-MEL-28
SK-MEL-2 = tested on: SK-MEL-2
SK-MEL-5 = tested on: SK-MEL-5
SK-OV-3 = tested on: SK-OV-3
SN12C = tested on: SN12C
SNB-19 = tested on: SNB-19
SNB-75 = tested on: SNB-75
SNB-78 = tested on: SNB-78
SW-620 = tested on: SW-620
TK-10 = tested on: TK-10
U-251 = tested on: U-251
UACC-62 = tested on: UACC-62
UO-31 = tested on: UO-31
XF498 = tested on: XF498
HL-60 = tested on: HL-60
HOP-18 = tested on: HOP-18
RXF 393 = tested on: RXF 393
UACC-257 = tested on: UACC-257
A498 = tested on: A498
SR = tested on: SR

C=C1C(=O)O[C@@H]2C[C@]3(C)[C@@H](C[C@H]12)[C@](C)(O)CC[C@@H]3O
GI50 (786-0): 39.4 µM (inactive) | GI50 (A549): > 100 µM (inactive) | GI50 (ACHN): > 100 µM (inactive) | GI50 (CAKI-1): 66.1 µM (inactive) | GI50 (CCRF-CEM): 33.5 µM (inactive) | GI50 (COLO 205): 38.8 µM (inactive) | GI50 (DLD-1): 41 µM (inactive) | GI50 (DMS-114): 39.2 µM (inactive) | GI50 (DMS-273): 52.8 µM (inactive) | GI50 (EKVX): > 100 µM (inactive) | GI50 (HCC 2998): > 100 µM (inactive) | GI50 (HCT-116): 36 µM (inactive) | GI50 (HCT-15): 52.4 µM | GI50 (HOP-62): > 100 µM (inactive) | GI50 (HOP-92): 81.3 µM (inactive) | GI50 (HT-29): 33.3 µM (inactive) | GI50 (IGROV-1): > 100 µM (inactive) | GI50 (K562): 33.4 µM (inactive) | GI50 (KM-20L2): 38.9 µM (inactive) | GI50 (KM12): 37.8 µM (inactive) | GI50 (LOX IMVI): 55.7 µM (inactive) | GI50 (LXFL 529): 44 µM (inactive) | GI50 (M14): 31.5 µM (inactive) | GI50 (M19-MEL): 43.9 µM (inactive) | GI50 (MOLT-4): 57.1 µM (inactive) | GI50 (Malme-3M): 71.3 µM (inactive) | GI50 (NCI-H226): 48.3 µM (inactive) | GI50 (NCI-H23): 30.1 µM (inactive) | GI50 (NCI-H460): 23.7 µM (inactive) | GI50 (NCI-H522): 34.8 µM (inactive) | GI50 (OVCAR-3): 37.9 µM (inactive) | GI50 (OVCAR-4): > 100 µM (inactive) | GI50 (OVCAR-5): > 100 µM (inactive) | GI50 (OVCAR-8): 36.6 µM (inactive) | GI50 (RPMI-8226): 52.7 µM (inactive) | GI50 (RXF 631): 87.5 µM (inactive) | GI50 (SF-268): 42.4 µM (inactive) | GI50 (SF-295): > 100 µM (inactive) | GI50 (SF-539): 34 µM (inactive) | GI50 (SK-MEL-28): 65.2 µM (inactive) | GI50 (SK-MEL-2): 69.2 µM (inactive) | GI50 (SK-MEL-5): 91.8 µM (inactive) | GI50 (SK-OV-3): > 100 µM (inactive) | GI50 (SN12C): 59.4 µM (inactive) | GI50 (SNB-19): > 100 µM (inactive) | GI50 (SNB-75): 53.3 µM (inactive) | GI50 (SNB-78): 47.8 µM (inactive) | GI50 (SW-620): 45.9 µM (inactive) | GI50 (TK-10): 26.9 µM (inactive) | GI50 (U-251): > 100 µM (inactive) | GI50 (UACC-62): 32.5 µM (inactive) | GI50 (UO-31): > 100 µM (inactive) | GI50 (XF498): 36.5 µM (inactive)

COc1cc(C2C3=C(CCC3=O)Oc3cc4c(cc32)OCO4)cc(OC)c1OC (stereo unspecified)
GI50 (A549): 0.448 µM (active) | GI50 (ACHN): 0.337 µM (active) | GI50 (CAKI-1): 0.222 µM (active) | GI50 (CCRF-CEM): 0.318 µM (active) | GI50 (COLO 205): 0.336 µM (active) | GI50 (DMS-114): 0.218 µM (active) | GI50 (DMS-273): 0.158 µM (active) | GI50 (EKVX): 0.422 µM (active) | GI50 (HCT-116): 0.391 µM (active) | GI50 (HCT-15): 0.256 µM | GI50 (HL-60): 0.204 µM (active) | GI50 (HOP-18): > 100 µM (inactive) | GI50 (HOP-62): 0.0324 µM (active) | GI50 (HOP-92): 0.036 µM (active) | GI50 (HT-29): 0.279 µM (active) | GI50 (IGROV-1): 0.67 µM (active) | GI50 (K562): 0.138 µM (active) | GI50 (KM-20L2): 0.238 µM (active) | GI50 (LOX IMVI): 0.491 µM (active) | GI50 (M14): 0.349 µM (active) | GI50 (M19-MEL): 0.412 µM (active) | GI50 (Malme-3M): 1.44 µM (inactive) | GI50 (NCI-H23): 0.39 µM (active) | GI50 (NCI-H460): 0.358 µM (active) | GI50 (OVCAR-3): 0.136 µM (active) | GI50 (OVCAR-4): 10 µM (inactive) | GI50 (OVCAR-5): 0.458 µM (active) | GI50 (OVCAR-8): 0.596 µM (active) | GI50 (RXF 393): 0.54 µM (active) | GI50 (RXF 631): 0.367 µM (active) | GI50 (SF-295): 0.109 µM (active) | GI50 (SK-MEL-28): 0.429 µM (active) | GI50 (SK-MEL-5): 0.237 µM (active) | GI50 (SK-OV-3): 0.28 µM (active) | GI50 (SN12C): 0.593 µM (active) | GI50 (SNB-19): 0.692 µM (active) | GI50 (SNB-75): 0.038 µM (active) | GI50 (SNB-78): 0.706 µM (active) | GI50 (SW-620): 0.285 µM (active) | GI50 (TK-10): 0.417 µM (active) | GI50 (U-251): 0.366 µM (active) | GI50 (UACC-257): 0.406 µM (active) | GI50 (UACC-62): 0.141 µM (active) | GI50 (UO-31): 0.321 µM (active) | GI50 (XF498): 0.122 µM (active)

CCCCNC(=S)OCCC(C)CCCC(C)C (stereo unspecified)
GI50 (786-0): > 100 µM (inactive) | GI50 (A498): > 100 µM (inactive) | GI50 (A549): > 100 µM (inactive) | GI50 (ACHN): > 100 µM (inactive) | GI50 (CAKI-1): > 100 µM (inactive) | GI50 (CCRF-CEM): > 100 µM (inactive) | GI50 (DLD-1): > 100 µM (inactive) | GI50 (DMS-114): > 100 µM (inactive) | GI50 (DMS-273): > 100 µM (inactive) | GI50 (EKVX): > 100 µM (inactive) | GI50 (HCC 2998): > 100 µM (inactive) | GI50 (HCT-116): > 100 µM (inactive) | GI50 (HCT-15): > 100 µM | GI50 (HL-60): > 100 µM (inactive) | GI50 (HOP-18): > 100 µM (inactive) | GI50 (HOP-62): > 100 µM (inactive) | GI50 (HT-29): > 100 µM (inactive) | GI50 (IGROV-1): > 100 µM (inactive) | GI50 (K562): > 100 µM (inactive) | GI50 (KM-20L2): > 100 µM (inactive) | GI50 (KM12): > 100 µM (inactive) | GI50 (LOX IMVI): > 100 µM (inactive) | GI50 (LXFL 529): > 100 µM (inactive) | GI50 (M14): > 100 µM (inactive) | GI50 (M19-MEL): > 100 µM (inactive) | GI50 (MOLT-4): > 100 µM (inactive) | GI50 (Malme-3M): > 100 µM (inactive) | GI50 (NCI-H23): > 100 µM (inactive) | GI50 (NCI-H460): > 100 µM (inactive) | GI50 (OVCAR-4): > 100 µM (inactive) | GI50 (OVCAR-5): > 100 µM (inactive) | GI50 (OVCAR-8): > 100 µM (inactive) | GI50 (RPMI-8226): > 100 µM (inactive) | GI50 (RXF 393): > 100 µM (inactive) | GI50 (SF-268): > 100 µM (inactive) | GI50 (SF-295): > 100 µM (inactive) | GI50 (SF-539): > 100 µM (inactive) | GI50 (SK-MEL-28): 87.9 µM (inactive) | GI50 (SK-MEL-2): > 100 µM (inactive) | GI50 (SK-MEL-5): > 100 µM (inactive) | GI50 (SK-OV-3): > 100 µM (inactive) | GI50 (SN12C): > 100 µM (inactive) | GI50 (SNB-19): > 100 µM (inactive) | GI50 (SNB-75): 35.3 µM (inactive) | GI50 (SNB-78): > 100 µM (inactive) | GI50 (SR): > 100 µM (inactive) | GI50 (SW-620): > 100 µM (inactive) | GI50 (TK-10): > 100 µM (inactive) | GI50 (U-251): > 100 µM (inactive) | GI50 (UACC-257): > 100 µM (inactive) | GI50 (UACC-62): > 100 µM (inactive) | GI50 (UO-31): > 100 µM (inactive) | GI50 (XF498): > 100 µM (inactive)
